Laboratory results from ChEMBL document CHEMBL1201862, “PubChem BioAssay data set” (2004).
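Assay format: 96-well plates, 48-hour exposure. At the GI50, growth is halved.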 Active and inactive are the calls of the source. Rule as the data show it: active = GI50 up to about 1.1 µM and inactive = higher.

How the values were obtained:
Assay in all cases: NCI tumour cell line growth inhibition, 48 h
HL-60 = tested on: HL-60
OVCAR-5 = tested on: OVCAR-5
CAKI-1 = tested on: CAKI-1
HOP-92 = tested on: HOP-92
OVCAR-4 = tested on: OVCAR-4
RPMI-8226 = tested on: RPMI-8226
NCI-H522 = tested on: NCI-H522
CCRF-CEM = tested on: CCRF-CEM
ACHN = tested on: ACHN
LXFL 529 = tested on: LXFL 529
SK-MEL-5 = tested on: SK-MEL-5
HCT-116 = tested on: HCT-116
LOX IMVI = tested on: LOX IMVI
XF498 = tested on: XF498
SF-539 = tested on: SF-539
EKVX = tested on: EKVX
K562 = tested on: K562
SN12C = tested on: SN12C
HCC 2998 = tested on: HCC 2998
SR = tested on: SR
SK-OV-3 = tested on: SK-OV-3
SK-MEL-2 = tested on: SK-MEL-2
M19-MEL = tested on: M19-MEL
OVCAR-8 = tested on: OVCAR-8
SNB-78 = tested on: SNB-78
RXF 393 = tested on: RXF 393
NCI-H460 = tested on: NCI-H460
SW-620 = tested on: SW-620
HOP-62 = tested on: HOP-62
NCI-H226 = tested on: NCI-H226
A498 = tested on: A498
M14 = tested on: M14
KM12 = tested on: KM12
SNB-19 = tested on: SNB-19
TK-10 = tested on: TK-10
OVCAR-3 = tested on: OVCAR-3
COLO 205 = tested on: COLO 205
UO-31 = tested on: UO-31
U-251 = tested on: U-251
DMS-273 = tested on: DMS-273
UACC-62 = tested on: UACC-62
UACC-257 = tested on: UACC-257
HOP-18 = tested on: HOP-18
786-0 = tested on: 786-0
Malme-3M = tested on: Malme-3M
SF-295 = tested on: SF-295
NCI-H23 = tested on: NCI-H23
SNB-75 = tested on: SNB-75
KM-20L2 = tested on: KM-20L2
DLD-1 = tested on: DLD-1
A549 = tested on: A549
IGROV-1 = tested on: IGROV-1
HT-29 = tested on: HT-29
MOLT-4 = tested on: MOLT-4
HCT-15 = tested on: HCT-15
NCI/ADR-RES = tested on: NCI/ADR-RES
MCF7 = tested on: MCF7
SF-268 = tested on: SF-268
DMS-114 = tested on: DMS-114
SK-MEL-28 = tested on: SK-MEL-28

COC(=O)C(=C/c1ccc(OC)cc1)/C(C(=O)O)=C(/C)c1ccccc1
GI50 (HL-60): > 100 µM (inactive) | GI50 (OVCAR-5): > 100 µM (inactive) | GI50 (CAKI-1): > 100 µM (inactive) | GI50 (HOP-92): > 100 µM (inactive) | GI50 (OVCAR-4): > 100 µM (inactive) | GI50 (RPMI-8226): > 100 µM (inactive) | GI50 (NCI-H522): > 100 µM (inactive) | GI50 (CCRF-CEM): > 100 µM (inactive) | GI50 (ACHN): > 100 µM (inactive) | GI50 (LXFL 529): > 100 µM (inactive) | GI50 (SK-MEL-5): > 100 µM (inactive) | GI50 (HCT-116): > 100 µM (inactive) | GI50 (LOX IMVI): > 100 µM (inactive) | GI50 (XF498): > 100 µM (inactive) | GI50 (SF-539): > 100 µM (inactive) | GI50 (EKVX): > 100 µM (inactive) | GI50 (K562): > 100 µM (inactive) | GI50 (SN12C): > 100 µM (inactive) | GI50 (HCC 2998): > 100 µM (inactive) | GI50 (SR): > 100 µM (inactive) | GI50 (SK-OV-3): > 100 µM (inactive) | GI50 (SK-MEL-2): > 100 µM (inactive) | GI50 (M19-MEL): > 100 µM (inactive) | GI50 (OVCAR-8): > 100 µM (inactive) | GI50 (SNB-78): > 100 µM (inactive) | GI50 (RXF 393): > 100 µM (inactive) | GI50 (NCI-H460): > 100 µM (inactive) | GI50 (SW-620): > 100 µM (inactive) | GI50 (HOP-62): > 100 µM (inactive) | GI50 (NCI-H226): > 100 µM (inactive) | GI50 (A498): > 100 µM (inactive) | GI50 (M14): > 100 µM (inactive) | GI50 (KM12): > 100 µM (inactive) | GI50 (SNB-19): > 100 µM (inactive) | GI50 (TK-10): > 100 µM (inactive) | GI50 (OVCAR-3): > 100 µM (inactive) | GI50 (COLO 205): > 100 µM (inactive) | GI50 (UO-31): > 100 µM (inactive) | GI50 (U-251): > 100 µM (inactive) | GI50 (DMS-273): > 100 µM (inactive) | GI50 (UACC-62): > 100 µM (inactive) | GI50 (UACC-257): > 100 µM (inactive) | GI50 (HOP-18): > 100 µM (inactive) | GI50 (786-0): > 100 µM (inactive) | GI50 (Malme-3M): > 100 µM (inactive) | GI50 (SF-295): > 100 µM (inactive) | GI50 (NCI-H23): > 100 µM (inactive) | GI50 (SNB-75): > 100 µM (inactive) | GI50 (KM-20L2): > 100 µM (inactive) | GI50 (DLD-1): > 100 µM (inactive) | GI50 (A549): > 100 µM (inactive) | GI50 (IGROV-1): > 100 µM (inactive) | GI50 (HT-29): > 100 µM (inactive) | GI50 (MOLT-4): > 100 µM (inactive) | GI50 (HCT-15): > 100 µM

COc1cc(C2c3cc4c(cc3[C@@H](Nc3cccc(C(C)=O)c3)C3COC(=O)[C@H]23)OCO4)cc(OC)c1O (some centres undefined)
GI50 (HL-60): < 0.0327 µM (active) | GI50 (OVCAR-5): 2.1 µM (inactive) | GI50 (NCI/ADR-RES): 0.383 µM (active) | GI50 (CAKI-1): 0.108 µM (active) | GI50 (HOP-92): 0.478 µM (active) | GI50 (OVCAR-4): 6.17 µM (inactive) | GI50 (RPMI-8226): 0.197 µM (active) | GI50 (NCI-H522): 1.39 µM (inactive) | GI50 (CCRF-CEM): 0.0349 µM (active) | GI50 (SK-MEL-5): 0.411 µM (active) | GI50 (HCT-116): 0.664 µM (active) | GI50 (MCF7): 0.0785 µM (active) | GI50 (LOX IMVI): 0.39 µM (active) | GI50 (XF498): 0.573 µM (active) | GI50 (SF-539): 0.243 µM (active) | GI50 (EKVX): 2.21 µM (inactive) | GI50 (K562): 0.536 µM (active) | GI50 (SN12C): 0.405 µM (active) | GI50 (HCC 2998): 1.34 µM (inactive) | GI50 (SK-OV-3): 0.71 µM (active) | GI50 (SK-MEL-2): 2.65 µM (inactive) | GI50 (M19-MEL): 0.897 µM (active) | GI50 (OVCAR-8): 0.968 µM (active) | GI50 (SNB-78): 2.75 µM (inactive) | GI50 (RXF 393): 0.762 µM (active) | GI50 (NCI-H460): < 0.01 µM (active) | GI50 (SW-620): 0.2 µM (active) | GI50 (HOP-62): 0.122 µM (active) | GI50 (NCI-H226): 0.236 µM (active) | GI50 (A498): 0.236 µM (active) | GI50 (KM12): 1.59 µM (inactive) | GI50 (SNB-19): 0.236 µM (active) | GI50 (OVCAR-3): 1.91 µM (inactive) | GI50 (COLO 205): 1.86 µM (inactive) | GI50 (SF-268): 0.577 µM (active) | GI50 (UO-31): 0.291 µM (active) | GI50 (U-251): 0.245 µM (active) | GI50 (DMS-273): 0.0497 µM (active) | GI50 (UACC-62): 0.233 µM (active) | GI50 (UACC-257): 1.05 µM (active) | GI50 (HOP-18): 1 µM (active) | GI50 (Malme-3M): 1.28 µM (inactive) | GI50 (SF-295): 0.126 µM (active) | GI50 (NCI-H23): 0.264 µM (active) | GI50 (SNB-75): 0.838 µM (active) | GI50 (KM-20L2): 1.66 µM (inactive) | GI50 (DMS-114): 0.505 µM (active) | GI50 (DLD-1): 1.37 µM (inactive) | GI50 (SK-MEL-28): 3.01 µM (inactive) | GI50 (A549): < 0.0184 µM (active) | GI50 (IGROV-1): 3.03 µM (inactive) | GI50 (HT-29): 1.1 µM (active) | GI50 (MOLT-4): < 0.01 µM (active) | GI50 (HCT-15): 0.307 µM
